71 compounds from ChEMBL document CHEMBL3507680, “University of Dundee, Gates Library screen for HepG2 cell viability” can be followed below.

Each structure is given as a SMILES string.

A short description of the data set: Human HepG2 cell viability assay in 384 well format. In kind it is toxicity, cell-based. Further details: dose 125 nL, time 70.5 hour; concentration not given beside the values. The conditions noted are these: HepG2 cells, read-out: Inhibition.
Consider `COCCC(=O)NC(C)(C(N)=O)c1cccc(Cl)c1` (stereo unspecified), for which the cytotoxicity at 70.5 h was -3.41%.
For `COCCN1C[C@@H]2[C@@H](OC)CCN(C(=O)Cc3ccsc3)[C@@H]2C1` the value was -8.01%; for `CC(C)Cc1cc(C(=O)NC(C)(C)c2nnc(N)s2)n(C)n1`, -6.76%; for `Cc1nn(C)c(C)c1C1CCCN1Cc1ccc(C(N)=O)cc1` (stereo unspecified), -10.3%.
Regarding `CC(C)c1nc(CC(=O)N2CCN(C)CC2c2ccccc2)cs1` (stereo unspecified), the cytotoxicity at 70.5 h stood at 12.9%.
As to `CC(C)N1C(=O)CN(CCOCCO)CC1(C)C`, the cytotoxicity at 70.5 h is -1.37%.
For `CC(=O)c1cccc(OCC(=O)N(CC(C)C)C2CCN(C)CC2)c1` the value was 10.2%; for `CCc1nnc2n1CCN(Cc1csc(-c3ccc(C)o3)n1)C2`, -33.2%; for `CC[C@@H](C)[C@H](NC(=O)NC1CCS(=O)(=O)C1)C(=O)NCc1ccncc1` (stereo partly specified), 10.2%.
For `COc1ccc(-c2ccc(C(=O)N3CCC[C@@H]3CO)o2)cc1` the value was -13.9%; for `CC(C)C[C@H](NC(=O)c1cc(-c2cccn2C)n[nH]1)C(N)=O`, -0.791%; for `Cn1cc(C(=O)N2CCCC(c3cc(O)n(C)n3)C2)cn1` (stereo unspecified), 7.43%.
`CNc1ncc(CN(C)Cc2cc3n(n2)CCNC3)cn1`: the cytotoxicity at 70.5 h was -9%.
As for `COCC(=O)NCc1cc(=O)n2c(n1)CN(C)CCC2`, the cytotoxicity at 70.5 h is -3.22%.
As to `Cc1oncc1C(=O)N1CC[C@H]2[C@H](C[C@@H](CN(C)C)N2CC2CC2)C1`, the cytotoxicity at 70.5 h was -0.907%.
For `Cc1ccc(C(C)NC(=O)N2CCCN(CC(F)F)CC2)s1` (stereo unspecified) the value was -2.75%; for `CCOc1ccnc(N2CCN(C(=O)c3ccc(C#N)cc3)CC2)n1`, 2.75%.
For `CN(C)c1ccc(CCCNC(=O)NCC(O)c2ccsc2)cc1` (stereo unspecified) the value was -3.63%.
The same measure for `CC(=O)NCc1noc2c1CN(Cc1ccsc1)CC2`: -7.56%; for `Cc1cnc(N2CCC3(C2)CN(S(=O)(=O)C2CC2)C3)nc1`: -8.82%; for `COCCNS(=O)(=O)c1ccc2c(c1)CCN(C(=O)c1cncn1C)C2`: -5.18%.
Regarding `CC(C)n1cccc1C(=O)N1CC[C@@H](NC(=O)c2ccccn2)[C@H](O)C1`, the cytotoxicity at 70.5 h was -14.5%.
Consider `CCc1ccc(S(=O)(=O)N2CC[C@@](O)(CCOC)[C@H](C)C2)cc1`, for which the cytotoxicity at 70.5 h was -10.2%.
Turning to `Nc1ncc(C(=O)N2CCCC(N)CC2)c(-c2ccccc2)n1` (stereo unspecified), the cytotoxicity at 70.5 h was found to be 7.49%.
For `Cc1noc(C)c1CN(C)C(=O)C1CCCc2ccccc21` (stereo unspecified) the value was -0.492%.
In the case of `CC(C)c1nc(CNC2CCCN(c3cccnn3)C2)no1` (stereo unspecified), the cytotoxicity at 70.5 h was found to be 21%.
With `CCn1cc(CNC2CC(=O)N(CCc3cccc(Cl)c3)C2)cn1` (stereo unspecified), the cytotoxicity at 70.5 h is -3.19%.
Regarding `Cc1nc2ccccc2nc1NCc1cccc(OCC2CCCO2)c1` (stereo unspecified), the cytotoxicity at 70.5 h amounted to 0.538%.
Turning to `CC(C)(C)c1cc(C(=O)N2CCOC(c3cnccn3)C2)[nH]n1` (stereo unspecified), the cytotoxicity at 70.5 h was determined as 0.63%.
As to `COc1ccc(C(CNC(=O)NCc2csc(C)n2)N(C)C)cc1` (stereo unspecified), the cytotoxicity at 70.5 h turned out to be 21%.
Take `O=C(CCCn1cncn1)NC1(c2ccc(Cl)cc2)CCC1`: the cytotoxicity at 70.5 h is -1.83%.
Consider `NS(=O)(=O)NCC1(c2ccccc2Br)CC1`, for which the cytotoxicity at 70.5 h stood at 0.0399%.
The same measure for `CC(O)CNC(=O)CCc1nc2ncccc2[nH]1` (stereo unspecified): -29.9%.
As to `Cc1ccc(-c2cn3c(n2)CO[C@@H](CNCc2nccn2C)C3)cc1`, the cytotoxicity at 70.5 h is -5.86%.
Turning to `CCCN(CC)C(=O)c1nc2c(n1C)CCN(Cc1ccccc1)C2`, the cytotoxicity at 70.5 h is -4.66%.
As for `CC(C)(C)OC(=O)N1CCC[C@H](NCC2=CCCOC2)C1`, the cytotoxicity at 70.5 h was -9.87%.
With `CNC(=O)c1cccc(CCNc2ccccn2)c1`, the cytotoxicity at 70.5 h was -0.207%.
As to `CNC(=O)C1CCCN1C(=O)NCCCc1cccc(F)c1` (stereo unspecified), the cytotoxicity at 70.5 h is 1.01%.
Take `Cc1cc(C[C@@H]2CCC[C@H]2NCc2ccccc2F)on1`: the cytotoxicity at 70.5 h was -2.37%.
For `O=c1[nH]c2c(-c3ccccn3)nsc2c(=O)n1CC1CCCO1` (stereo unspecified), the cytotoxicity at 70.5 h was -11.7%.
For `O=C(NCCCn1cncn1)NCC(c1ccco1)N1CCCCC1` (stereo unspecified) the value was -18.7%; for `CN(Cc1noc(C2CC2)n1)C1CCN(Cc2cccc(F)c2F)C1` (stereo unspecified), 15.9%.
For `Cc1cc(C)c(C(=O)N2CCC3(CCCN(CC(C)(C)C)C3)C2)[nH]1` (stereo unspecified) the value was 15.2%; for `CCn1nc(C)c(CCNC(=O)C2CCCN(C(=O)COC)C2)c1C` (stereo unspecified), 18%; for `CCN1CC2(CCN(C(=O)C3CSC(C)(C)C(=O)N3)CC2)CC1=O` (stereo unspecified), -6.11%.
Turning to `C[C@@H]1CN(Cc2ccncc2)C[C@@]1(O)C1CC1`, the cytotoxicity at 70.5 h was -11.5%.
For `O=C1CCC(c2ccc(Cl)cc2)=NN1CN1CCCCCC1` the value was -4.16%; for `CNCc1cc(F)ccc1Oc1ccc(F)cc1`, 2.53%.
Consider `CN(C)c1cc(CNC(=O)c2cc(F)ccc2F)ccn1`, for which the cytotoxicity at 70.5 h amounted to 0.104%.
With `COC(=O)c1cccc(C(=O)N(C)Cc2cccc(F)c2)c1`, the cytotoxicity at 70.5 h is 5.14%.
Take `CCC(=O)Nc1ccc(OCC(=O)N(C)C(C)c2ccon2)cc1` (stereo unspecified): the cytotoxicity at 70.5 h is -18.6%.
The same measure for `Cc1csc(N2CCCN(C(=O)c3csc(C)n3)CC2)n1`: -10.6%; for `Cc1cc(C(NC(=O)CNS(C)(=O)=O)C(C)C)c(C)s1` (stereo unspecified): 1.39%; for `Cc1ccc(C(=O)N2C[C@@H]3OCCN(CC4CCCC4)[C@@H]3C2)cn1`: -6.94%.
For `CN1CCN(c2ncccc2CNc2ncccc2C#N)CC1`, the cytotoxicity at 70.5 h was -10.7%.
Take `CN(C)CC1(O)CCCN(C(=O)c2cnc(-c3ccccn3)nc2)C1` (stereo unspecified): the cytotoxicity at 70.5 h is -3.36%.
Regarding `CC(C)Nc1ncnc2c1CCN(C(=O)c1ccncc1F)CC2`, the cytotoxicity at 70.5 h was 5.41%.
For `COCCOCC1CCN(C(=O)c2ccc3[nH]cnc3c2)C1` (stereo unspecified) the value was 2.45%; for `CC(C)n1nnnc1-c1ccc(NC(=O)CCC(F)(F)F)cc1F`, -18%.
As to `O=C(NC[C@]12COC[C@H]1CN(CC1CCOCC1)C2)c1ccco1`, the cytotoxicity at 70.5 h is -3.33%.
Take `O=C(c1ccc(C2CCCN2C(=O)c2ccc[nH]2)s1)N1CCSCC1` (stereo unspecified): the cytotoxicity at 70.5 h is -19.6%.
With `COc1ccc(CN(CCC#N)CCN2CCOCC2)cc1OC`, the cytotoxicity at 70.5 h was -10.2%.
Turning to `Cn1cnnc1SCC(=O)NC1CC(=O)N(CCc2ccccc2)C1` (stereo unspecified), the cytotoxicity at 70.5 h is -8.79%.
For `Cc1cnn(CCNCc2nnc(C3CC3)o2)c1` the value was 11.6%; for `O=C1NC2(CCN(C(=O)c3ccccc3)CC2)CC1c1cccnc1` (stereo unspecified), 2.71%.
Consider `CC(C)(C)n1cc(C2=CCN(CCN3CCCCCC3)CC2)cn1`, for which the cytotoxicity at 70.5 h was -4.69%.
`CC(C)Cc1nnc(NC(=O)NC(CCO)c2cccs2)s1` (stereo unspecified): the cytotoxicity at 70.5 h is -3.34%.
For `COC(=O)c1ccc2ccn(CC3CCCO3)c(=O)c2c1` (stereo unspecified), the cytotoxicity at 70.5 h is -0.903%.
For the compound `COc1cccc(C(=O)N2CCC3(CCC(=O)N(C(C)C)C3)CC2)c1C`, the cytotoxicity at 70.5 h was -4.66%.
Turning to `COc1cc(NC(=O)NC2CC2)ccc1N1CCOC1=O`, the cytotoxicity at 70.5 h is -8.49%.
The same measure for `COCCNC(=O)CN1CCN(c2nc(C)cs2)CC1`: -3.26%.
